Results as given in ChEMBL document CHEMBL4673260, “Pyridine alkaloids with activity in the central nervous system” (Bioorg Med Chem, 2020).

What was measured:
[1] = biological target: T1, Acetylcholinesterase (Homo sapiens, UniProt P22303)
[2] = biological target: T1, Acetylcholinesterase; test: Inhibition of acetylcholinesterase (unknown origin) using acetylthiocholine iodide as substrate incubated for 30 mins by Ellman's coupled enzyme assay
[3] = biological target: Muscarinic acetylcholine receptor M3 (Rattus norvegicus, UniProt P08483); test: Inhibition of [3H]-methyl-quinuclidinyl benzilate binding to rat salivary gland muscarinic M3 receptor by radioligand binding assay
Chain of Muscarinic acetylcholine receptor M3 (P08483 whole entry): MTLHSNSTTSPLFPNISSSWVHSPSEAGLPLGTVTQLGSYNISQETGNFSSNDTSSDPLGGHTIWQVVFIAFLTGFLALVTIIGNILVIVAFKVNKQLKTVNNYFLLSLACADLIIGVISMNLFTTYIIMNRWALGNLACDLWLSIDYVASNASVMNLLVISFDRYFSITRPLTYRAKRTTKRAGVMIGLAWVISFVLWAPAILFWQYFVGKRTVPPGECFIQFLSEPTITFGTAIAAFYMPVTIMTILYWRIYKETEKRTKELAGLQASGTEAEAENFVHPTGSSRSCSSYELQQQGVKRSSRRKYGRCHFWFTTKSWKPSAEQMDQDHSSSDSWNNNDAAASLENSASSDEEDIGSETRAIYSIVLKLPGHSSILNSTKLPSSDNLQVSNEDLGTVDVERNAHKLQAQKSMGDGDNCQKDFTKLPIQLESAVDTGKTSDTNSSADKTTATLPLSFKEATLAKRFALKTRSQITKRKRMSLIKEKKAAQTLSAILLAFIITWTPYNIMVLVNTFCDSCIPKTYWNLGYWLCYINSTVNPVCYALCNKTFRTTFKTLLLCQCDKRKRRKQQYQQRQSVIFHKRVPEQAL

[4] = biological target: T2, Muscarinic acetylcholine receptor M2 (Rattus norvegicus, UniProt P10980); test: Inhibition of [3H]-methyl-quinuclidinyl benzilate binding to rat heart muscarinic M2 receptor by radioligand binding assay
T2 sequence (P10980 whole entry): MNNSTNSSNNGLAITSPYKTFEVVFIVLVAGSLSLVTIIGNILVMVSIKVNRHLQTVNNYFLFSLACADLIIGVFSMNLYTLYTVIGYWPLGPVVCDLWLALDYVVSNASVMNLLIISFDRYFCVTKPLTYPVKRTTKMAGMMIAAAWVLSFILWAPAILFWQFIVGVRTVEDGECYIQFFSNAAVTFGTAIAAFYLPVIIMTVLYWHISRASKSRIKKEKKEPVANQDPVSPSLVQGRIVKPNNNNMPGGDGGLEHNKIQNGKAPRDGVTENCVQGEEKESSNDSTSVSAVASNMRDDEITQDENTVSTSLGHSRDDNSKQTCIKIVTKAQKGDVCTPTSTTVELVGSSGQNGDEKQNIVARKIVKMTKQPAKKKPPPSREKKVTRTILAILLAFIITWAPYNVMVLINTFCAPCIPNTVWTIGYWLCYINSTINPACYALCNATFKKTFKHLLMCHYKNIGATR

[5] = biological target: T3, Muscarinic acetylcholine receptor M1 (Rattus norvegicus, UniProt P08482); test: Inhibition of [3H]-methyl-quinuclidinyl benzilate binding to rat brain muscarinic M1 receptor by radioligand binding assay
T3 sequence (P08482 whole entry): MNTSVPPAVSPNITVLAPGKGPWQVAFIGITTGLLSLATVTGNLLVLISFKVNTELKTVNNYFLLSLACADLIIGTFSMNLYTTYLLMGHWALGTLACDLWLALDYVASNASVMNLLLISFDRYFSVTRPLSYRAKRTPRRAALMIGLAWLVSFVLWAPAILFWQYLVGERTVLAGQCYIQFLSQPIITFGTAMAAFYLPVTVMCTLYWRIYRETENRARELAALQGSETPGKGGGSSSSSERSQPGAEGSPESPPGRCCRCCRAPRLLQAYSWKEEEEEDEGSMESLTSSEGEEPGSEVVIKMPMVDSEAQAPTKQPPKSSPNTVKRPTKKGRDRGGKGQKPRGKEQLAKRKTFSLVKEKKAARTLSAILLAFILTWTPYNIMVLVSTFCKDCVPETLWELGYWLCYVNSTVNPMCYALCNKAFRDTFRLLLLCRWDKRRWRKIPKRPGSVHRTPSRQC

[6] = biological target: T4, Muscarinic acetylcholine receptor M1 (Rattus norvegicus) (UniProt P08482); conditions: filed as antagonist, time 60.0 min
T4 sequence (whole entry): T3 sequence (P08482 whole entry)

[7] = biological target: T4, Muscarinic acetylcholine receptor M1 (Rattus norvegicus); conditions: filed as antagonist, time 40.0 min
[8] = species on record: Cavia porcellus; test: Inhibition of voltage-dependent calcium channel mediated calcium influx in guinea-pig ileum assessed as Cacl2 induced maximal smooth muscle contraction at 120 uM incubated for 15 mins relative to control; assay type: tissue-based
[9] = species on record: Cavia porcellus; test: Inhibition of voltage-dependent calcium channel mediated calcium influx in guinea-pig ileum assessed as Cacl2 induced maximal smooth muscle contraction at 490 uM incubated for 15 mins relative to control; assay type: tissue-based
[10] = biological target: T5, Neuronal acetylcholine receptor; alpha4/beta2 (Homo sapiens, UniProt P17787+P43681)
T5 sequence (P17787 whole entry): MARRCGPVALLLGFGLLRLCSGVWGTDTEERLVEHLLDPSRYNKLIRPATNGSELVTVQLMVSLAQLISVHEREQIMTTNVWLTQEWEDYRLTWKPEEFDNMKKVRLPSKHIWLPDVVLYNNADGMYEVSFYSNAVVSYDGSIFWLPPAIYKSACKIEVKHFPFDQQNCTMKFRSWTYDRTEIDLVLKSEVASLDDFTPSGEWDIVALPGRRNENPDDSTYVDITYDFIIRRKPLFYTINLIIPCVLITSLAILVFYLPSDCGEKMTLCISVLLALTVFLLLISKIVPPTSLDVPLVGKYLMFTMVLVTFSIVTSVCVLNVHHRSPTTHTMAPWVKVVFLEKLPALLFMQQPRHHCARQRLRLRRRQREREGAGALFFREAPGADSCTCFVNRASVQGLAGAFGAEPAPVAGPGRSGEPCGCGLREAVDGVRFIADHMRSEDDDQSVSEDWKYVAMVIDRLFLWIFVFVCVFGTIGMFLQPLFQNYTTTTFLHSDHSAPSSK
T5 sequence (P43681 whole entry): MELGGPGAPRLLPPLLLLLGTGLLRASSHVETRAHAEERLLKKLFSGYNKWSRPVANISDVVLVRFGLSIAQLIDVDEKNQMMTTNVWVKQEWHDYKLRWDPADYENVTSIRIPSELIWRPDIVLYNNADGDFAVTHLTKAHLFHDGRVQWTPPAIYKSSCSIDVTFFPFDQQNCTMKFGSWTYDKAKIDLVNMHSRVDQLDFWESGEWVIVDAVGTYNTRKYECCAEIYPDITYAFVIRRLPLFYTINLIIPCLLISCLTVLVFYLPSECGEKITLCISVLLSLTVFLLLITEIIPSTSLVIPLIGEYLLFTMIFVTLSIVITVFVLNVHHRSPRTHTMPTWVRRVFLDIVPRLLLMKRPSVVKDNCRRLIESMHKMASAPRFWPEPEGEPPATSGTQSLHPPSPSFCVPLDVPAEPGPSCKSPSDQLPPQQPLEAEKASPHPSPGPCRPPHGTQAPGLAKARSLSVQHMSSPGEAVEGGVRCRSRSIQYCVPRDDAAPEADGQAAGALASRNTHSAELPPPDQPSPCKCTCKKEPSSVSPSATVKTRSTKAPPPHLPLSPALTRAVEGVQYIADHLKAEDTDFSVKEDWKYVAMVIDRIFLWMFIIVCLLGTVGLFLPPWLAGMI
Description: Displacement of [3H]cytisine from human alpha4beta2 nAChR by radioligand competition analysis

[11] = biological target: T5, Neuronal acetylcholine receptor; alpha4/beta2; remark: listed apart in the source
Description: Displacement of [3H]cytisine from human alpha4beta2 nAChR by Cheng-Prusoff equation analysis

[12] = species on record: Mus musculus; test: animal or person
Description: Antinociceptive activity in naloxone treated mouse assessed as induction of Straub-tail response

[13] = Induction of neurotoxicity in cray fish measured after 24 hrs; conditions: procambarus clarkii
[14] = Neurotoxicity in ip dosed mouse assessed as mouse death; assay type: toxicity, organism-based; conditions: in vivo
[15] = Neurotoxicity in ip dosed mouse assessed as induction of epileptic convulsion; assay type: toxicity, organism-based; conditions: in vivo
[16] = Neurotoxicity in ip dosed mouse assessed as induction of hindlimb tonic extension; assay type: toxicity, organism-based; conditions: in vivo
[17] = biological target: T5, Neuronal acetylcholine receptor; alpha4/beta2; test: Agonist activity at human brain alpha4beta2 nAChR expressed in CHO cells assessed as maximal receptor response by patch clamp electrophysiological assay relative to control; assay type: cell-based; conditions: filed as agonist
[18] = tested on: Torpedo; test: Agonist activity at Torpedo alpha1beta1deltagamma nACHR; conditions: filed as agonist
[19] = biological target: T6, Neuronal acetylcholine receptor; alpha4/beta2 (Rattus norvegicus) (UniProt P09483+P12390); test: Agonist activity at rat alpha4beta2 expressed in Xenopus oocytes assessed as peak activation at 100 uM relative to control; assay type: cell-based; conditions: Oocyte, filed as agonist
[20] = biological target: Neuronal acetylcholine receptor; alpha3/beta4 (Homo sapiens) (UniProt P30926+P32297); test: Agonist activity at human alpha3beta4 nAChR expressed in mouse/rat hybrid F11 cells assessed as increase in rubidium-86 efflux; assay type: cell-based; conditions: filed as agonist
[21] = biological target: Neuronal acetylcholine receptor subunit alpha-7 (Homo sapiens, UniProt P36544); conditions: filed as agonist
Chain of Neuronal acetylcholine receptor subunit alpha-7 (P36544 whole entry): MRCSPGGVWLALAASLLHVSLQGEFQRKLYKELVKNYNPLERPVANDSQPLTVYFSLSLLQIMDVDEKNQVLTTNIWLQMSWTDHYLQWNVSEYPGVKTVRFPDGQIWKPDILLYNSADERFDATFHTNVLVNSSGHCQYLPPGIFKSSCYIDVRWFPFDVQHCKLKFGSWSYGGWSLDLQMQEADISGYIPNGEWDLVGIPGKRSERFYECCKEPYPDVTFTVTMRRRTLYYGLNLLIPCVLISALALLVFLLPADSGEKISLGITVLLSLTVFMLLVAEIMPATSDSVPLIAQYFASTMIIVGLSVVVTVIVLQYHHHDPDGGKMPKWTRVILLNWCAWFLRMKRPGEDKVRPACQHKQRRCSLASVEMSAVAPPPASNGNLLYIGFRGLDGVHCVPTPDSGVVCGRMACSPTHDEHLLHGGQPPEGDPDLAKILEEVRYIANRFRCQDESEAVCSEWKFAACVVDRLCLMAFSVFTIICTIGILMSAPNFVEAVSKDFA
Description: Agonist activity at human alpha7 nAChR (unknown origin)

[22] = species on record: Rattus norvegicus; test: Agonist activity at nAChR in rat striatal synaptosomes assessed as [3H]dopamine release relative to tetramethylammonium; assay type: subcellular; conditions: Striatum, filed as agonist
[23] = biological target: T6, Neuronal acetylcholine receptor; alpha4/beta2 (Rattus norvegicus); test: Agonist activity at alpha4beta2 nAChR in rat thalamic synaptosomes assessed as 86Rb efflux relative to tetramethylammonium; assay type: subcellular; conditions: Thalamus, filed as agonist
[24] = biological target: T5, Neuronal acetylcholine receptor; alpha4/beta2; test: Agonist activity at human alpha4beta2 nAChR expressed in Xenopus oocytes relative to control; assay type: cell-based; conditions: Oocyte, filed as agonist
[25] = biological target: T5, Neuronal acetylcholine receptor; alpha4/beta2; test: Agonist activity at human alpha4beta2 nAChR expressed in Xenopus oocytes; assay type: cell-based, Oocyte
[26] = biological target: Neuronal acetylcholine receptor; alpha4/beta2 (Rattus norvegicus, UniProt P09483+P12390); test: Displacement of [3H]-cytisine from rat brain membrane alpha4beta2 nAChR; assay type: cell membranes
Chain of Neuronal acetylcholine receptor; alpha4/beta2 (Rattus norvegicus, UniProt P09483+P12390) (P09483 whole entry): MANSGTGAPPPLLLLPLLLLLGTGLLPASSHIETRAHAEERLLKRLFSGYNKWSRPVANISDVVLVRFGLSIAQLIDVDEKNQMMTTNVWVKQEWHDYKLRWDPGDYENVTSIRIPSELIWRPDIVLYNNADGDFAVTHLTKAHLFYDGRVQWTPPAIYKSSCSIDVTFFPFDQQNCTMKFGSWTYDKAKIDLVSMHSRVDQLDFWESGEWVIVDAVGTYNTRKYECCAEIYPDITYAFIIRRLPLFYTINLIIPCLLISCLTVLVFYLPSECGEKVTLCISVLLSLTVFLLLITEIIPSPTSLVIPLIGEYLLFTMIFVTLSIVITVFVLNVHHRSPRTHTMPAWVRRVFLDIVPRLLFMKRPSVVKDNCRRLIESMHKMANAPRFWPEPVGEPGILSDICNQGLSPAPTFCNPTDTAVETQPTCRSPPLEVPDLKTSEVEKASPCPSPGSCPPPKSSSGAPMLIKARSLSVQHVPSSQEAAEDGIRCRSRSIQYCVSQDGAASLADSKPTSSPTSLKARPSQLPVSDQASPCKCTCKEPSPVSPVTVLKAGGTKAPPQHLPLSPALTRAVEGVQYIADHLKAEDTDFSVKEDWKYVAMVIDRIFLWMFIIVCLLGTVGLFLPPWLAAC
Chain of Neuronal acetylcholine receptor; alpha4/beta2 (Rattus norvegicus, UniProt P09483+P12390) (P12390 whole entry): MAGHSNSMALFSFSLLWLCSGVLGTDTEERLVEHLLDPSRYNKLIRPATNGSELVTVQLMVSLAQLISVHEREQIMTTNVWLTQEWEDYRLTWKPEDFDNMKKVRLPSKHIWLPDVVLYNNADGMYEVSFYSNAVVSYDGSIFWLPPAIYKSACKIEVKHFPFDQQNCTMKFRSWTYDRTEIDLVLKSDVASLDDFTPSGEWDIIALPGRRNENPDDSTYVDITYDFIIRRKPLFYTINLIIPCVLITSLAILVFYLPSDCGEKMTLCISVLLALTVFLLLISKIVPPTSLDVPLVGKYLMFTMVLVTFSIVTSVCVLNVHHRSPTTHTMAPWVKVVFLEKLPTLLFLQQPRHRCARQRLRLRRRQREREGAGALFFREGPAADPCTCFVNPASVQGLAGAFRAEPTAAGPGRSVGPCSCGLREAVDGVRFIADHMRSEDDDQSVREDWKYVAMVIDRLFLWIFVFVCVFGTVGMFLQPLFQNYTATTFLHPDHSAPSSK

[27] = species on record: Rattus norvegicus; test: Displacement of [3H]-Cytisine from rat cerebral cortex nAChR at 10 uM by radioligand binding assay relative to control; conditions: filed as antagonist
[28] = biological target: T5, Neuronal acetylcholine receptor; alpha4/beta2; test: Agonist activity at human alpha4beta2 nAChR expressed in human K177 cell membrane assessed as increase in 86-rubidium efflux incubated for 5 mins by gamma counting method; assay type: cell membranes; conditions: K177cell line, filed as agonist
[29] = biological target: T4, Muscarinic acetylcholine receptor M1 (Rattus norvegicus); test: Displacement of [3H]-Pirenzepine from rat cerebral cortex Muscarinic M1 receptor at 10 uM by radioligand binding assay relative to control; conditions: filed as antagonist
[30] = biological target: T5, Neuronal acetylcholine receptor; alpha4/beta2; test: Agonist activity at human brain alpha4beta2 nAChR expressed in Xenopus laevis oocytes assessed as peak response relative to acetylcholine response; assay type: cell-based; conditions: Oocyte

T1 sequence (P22303 whole entry): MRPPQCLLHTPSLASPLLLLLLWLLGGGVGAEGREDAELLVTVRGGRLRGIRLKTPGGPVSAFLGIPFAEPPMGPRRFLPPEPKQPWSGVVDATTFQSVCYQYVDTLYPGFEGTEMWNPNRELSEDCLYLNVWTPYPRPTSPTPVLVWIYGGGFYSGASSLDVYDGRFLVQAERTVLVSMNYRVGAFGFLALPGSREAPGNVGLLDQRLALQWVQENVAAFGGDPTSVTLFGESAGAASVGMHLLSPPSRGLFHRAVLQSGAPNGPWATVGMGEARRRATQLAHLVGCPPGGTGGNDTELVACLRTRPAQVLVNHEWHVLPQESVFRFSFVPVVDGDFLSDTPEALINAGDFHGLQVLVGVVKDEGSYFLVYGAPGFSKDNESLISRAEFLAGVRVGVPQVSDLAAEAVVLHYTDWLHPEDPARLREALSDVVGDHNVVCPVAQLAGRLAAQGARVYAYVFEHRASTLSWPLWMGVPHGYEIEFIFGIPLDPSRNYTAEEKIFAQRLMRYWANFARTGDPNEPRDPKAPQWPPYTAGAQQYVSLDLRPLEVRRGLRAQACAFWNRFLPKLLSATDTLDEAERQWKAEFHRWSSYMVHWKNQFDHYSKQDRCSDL

**Q.** With `CCCCCCCCCCCCCCCCc1ccc(C(=O)[O-])c[n+]1C` as the molecule, how does the IC50 [1] read?
**A.** 2.8 mM

**Q.** With `C[C@@H]1CC[C@H]2[C@H](C(=O)c3c4c(cn(O)c3=O)[C@@]3(O)CC[C@H](O)[C@H](O4)[C@@H]3O)[C@H](C)C=C[C@@H]2C1` as the molecule, how does the IC50 [2] read?
**A.** 47 µM

**Q.** For `CCCCCCCCCCCCCCCCc1cc[n+](C)cc1C(=O)[O-]`, which IC50 [1] is on record?
**A.** 2.6 mM

**Q.** Which IC50 [3] does the source give for `c1cc2c[n+](c1)CCCCCCCCCCCCCc1ccc[n+](c1)CCCCCCCCCCCC2` here?
**A.** 149 µM

**Q.** What about the IC50 [4] of the same molecule?
**A.** 42.3 µM

**Q.** What about the IC50 [5] of the same molecule?
**A.** 111 µM

**Q.** With `C[N+](C)(C)CCOC(N)=O` as the molecule, how does the Kapp [6] read?
**A.** 22 µM

**Q.** What about the Kapp [7] of the same molecule?
**A.** 0.0049 µM

**Q.** For `COC(=O)c1cncc2c1C[C@H](O)[C@@H]2C`, which inhibition [8] is on record?
**A.** 90%

**Q.** And the inhibition [9]?
**A.** 45%

**Q.** For `C[C@@H]1CC2N(C)CC3c4cccc(=O)n4CC2(O)C31` (stereo partly drawn), which IC50 [10] is on record?
**A.** 260 nM

**Q.** What about the Ki [11] of the same molecule?
**A.** 88 nM

**Q.** Which IC50 [2] does the source give for `C[C@@H]1CC[C@H]2[C@H](C(=O)c3c(O)c([C@@]4(O)CC[C@@H](O)[C@H]5O[C@H]54)cn(O)c3=O)[C@H](C)C=C[C@@H]2C1` here?
**A.** 39 µM

**Q.** Which ED50 [12] does the source give for `CN1CC[C@]23c4c5ccc(O)c4O[C@H]2[C@@H](O)C=C[C@H]3[C@H]1C5` [MORPHINE] here?
**A.** 10 mg/kg

**Q.** With `CN1CC2c3cccc(=O)n3CC3C2[C@H](CO)CC31` (stereo partly drawn) as the molecule, how does the IC50 [10] read?
**A.** 3.9 nM

**Q.** And the Ki [11]?
**A.** 1.3 nM

**Q.** With `c1ccc(-c2cccnc2)nc1` [[2,3'']Bipyridinyl] as the molecule, how does the LD50 [13] read?
**A.** 94 µg

**Q.** Which results are given for `O=C(O)C[C@@H]1[C@@H](C(=O)O)NC[C@@H]1c1ccc(=O)[nH]c1C(=O)O`?
**A.** LD [14]: 8 mg/kg; LD [15]: 8 mg/kg; LD [16]: 8 mg/kg

**Q.** With `c1cc2c[n+](c1)CCCCCCCCCCCCCc1ccc[n+](c1)CCCCCCCCCCCCC2` as the molecule, how does the IC50 [3] read?
**A.** 193 µM

**Q.** And the IC50 [4]?
**A.** 72.3 µM

**Q.** And the IC50 [5]?
**A.** 162 µM

**Q.** For `CN1CCC[C@H]1c1cccnc1`, which Imax [17] is on record?
**A.** 159%

**Q.** What about the ED50 [18] of the same molecule?
**A.** 250 µM

**Q.** What about the Activity [19] of the same molecule?
**A.** 333%

**Q.** And the ED50 [20]?
**A.** 14 µM

**Q.** And the ED50 [21]?
**A.** 40 µM

**Q.** And the Emax [22]?
**A.** 113%

**Q.** And the Emax [23]?
**A.** 87%

**Q.** Which results are given for `C1=C[C@H](c2cccnc2)NCC1`?
**A.** Imax [24]: 102%; EC50 [25]: 310 nM; Ki [26]: 136 nM

**Q.** For `CO[C@]1(c2cn(O)c(=O)c(C(=O)[C@H]3[C@@H]4CC[C@@H](C)C[C@H]4C=C[C@H]3C)c2O)CC[C@@H](O)[C@H]2O[C@H]21`, which IC50 [2] is on record?
**A.** 0.81 µM

**Q.** For `Clc1ccc(C2CC3CCC2N3)cn1` (stereo in doubt; (+)), which ED50 [18] is on record?
**A.** 1.6 µM

**Q.** And the ED50 [20]?
**A.** 0.019 µM

**Q.** And the ED50 [21]?
**A.** 1.1 µM

**Q.** And the Kapp [6]?
**A.** 6.9 µM

**Q.** What about the Kapp [7] of the same molecule?
**A.** 1.6 µM

**Q.** And the inhibition [27]?
**A.** 98%

**Q.** And the ED50 [28]?
**A.** 17 nM

**Q.** What about the inhibition [29] of the same molecule?
**A.** 70%

**Q.** For `C1=CC[C@H](c2cccnc2)NC1`, which Imax [30] is on record?
**A.** 25%
